# Results taken from patent US12398111B2, “Triazine compounds and pharmaceutical use thereof” (Japan Tobacco Inc., priority 2014, dated 2025).
# Molecular target: T1, human mPGES-1 (Homo sapiens, UniProt O14684)
# T1 construct: made in house; host or cells: FreeStyle CHO-S cells (Chinese hamster ovary), transient transfection with pcDNA3.1(+)/human mPGES-1; microsome fraction used
# T1 sequence (O14684 1-152): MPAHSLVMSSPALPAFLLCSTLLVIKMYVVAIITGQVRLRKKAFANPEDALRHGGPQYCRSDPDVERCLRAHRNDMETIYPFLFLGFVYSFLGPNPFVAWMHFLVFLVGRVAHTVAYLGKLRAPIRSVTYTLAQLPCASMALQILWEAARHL
# Assay: Evaluation of human mPGES-1 enzyme inhibitory activity (PGE2 measured by HTRF, microsome fraction of CHO-S cells expressing human mPGES-1)
# Assay type: biochemical
# Details: IC50 value; microsome fraction of CHO-S cells expressing human mPGES-1, PGE2 by HTRF
# Procedure, shortened: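 Enzyme source: microsomes from CHO-S cells transfected with human mPGES-1 and cultured 48 hr, diluted to 5 μg/mL protein in reduced GSH (12.5 mmol/L KPB solution). Test articles were in 0.1 mol/L potassium phosphate pH 7.4, final DMSO 2% (v/v). PGE2 formed was quantified by HTRF.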
row,SMILES,IC50 [nM]
1,Cc1ccc(F)cc1-c1nc(O)nc(-c2ccc(C(F)(F)F)cc2)n1 [Example 1-1],813
2,Cc1cc(-c2nc(O)nc(-c3cc(CNC(=O)C(C)(C)C(F)(F)F)ccc3Cl)n2)ccc1F [Example 1-90],0.4
3,Cc1ccc(C(F)(F)F)cc1-c1nc(O)nc(-c2ccc(C(F)(F)F)cc2)n1 [Example 1-9],601
4,"CC1(C)C(=O)N(Cc2ccc(Cl)c(-c3nc(O)nc(-c4ccccc4)n3)c2)c2ccccc21 [Example 1-258, 1-[4-chloro-3-(4-hydroxy-6-phenyl-1,3,5-triazin-2-yl)-benzyl]-3,3-dimethyl-1,3-dihydroindol-2-one]",1900
5,CC(C)(C)C(=O)NCc1ccc(Cl)c(-c2nc(O)nc(-c3cccc(F)c3)n2)c1 [Example 1-76],1.7
6,CC(C)COCc1ccc(Cl)c(-c2nc(O)nc(-c3ccc(C#CC4CCCCC4)cc3)n2)c1 [Example 1-219],41
7,CC(C)C(=O)N(C)Cc1ccc(Cl)c(-c2nc(O)nc(-c3ccccc3)n2)c1 [Example 1-222],165
8,CO[C@](C)(C(=O)NCc1ccc(Cl)c(-c2nc(O)nc(-c3ccc(C(C)(F)F)cc3)n2)c1)C(F)(F)F [Example 1-138],0.5
9,CC(C)(C)COc1ccc(-c2nc(O)nc(-c3cc(CCC(=O)NC(C)(C)C)ccc3Cl)n2)cc1 [Example 1-217],126
10,CN(Cc1ccc(Cl)c(-c2nc(O)nc(-c3ccccc3)n2)c1)C(=O)C1(C(F)(F)F)CCCCC1 [Example 1-244],21
11,"CO[C@](C)(C(=O)NC(C)c1ccc(Cl)c(-c2nc(O)nc(-c3ccc(OCC(C)(C)C)cc3)n2)c1)C(F)(F)F (single isomer, unassigned) [Example 1-201]",306
12,CN(C)C(=O)c1ccc(Cl)c(-c2nc(O)nc(-c3ccc(OCC4CC4)cc3)n2)c1 [Example 1-195],6000
13,CC(C)Cc1cccc(-c2nc(O)nc(-c3cc(CNC(=O)C(C)(C)C(F)(F)F)ccc3Cl)n2)c1 [Example 1-95],2.1
14,CC1(COc2ccc(-c3nc(O)nc(-c4cc(CNC(=O)C(C)(C)C(F)(F)F)ccc4Cl)n3)cc2)CCC1 [Example 1-143],1
15,Oc1ccc(Cl)c(-c2nc(O)nc(-c3ccc(C(F)(F)F)cc3)n2)c1 [Example 1-7],652
16,CC(C)(C(=O)NCc1ccc(Cl)c(-c2nc(O)nc(-c3ccccc3)n2)c1)c1ccccc1 [Example 1-202],8.2
17,CC1(C)C(C(=O)NCc2ccc(Cl)c(-c3nc(O)nc(-c4ccc(OCC5CC5)cc4)n3)c2)C1(C)C [Example 1-173],5.4
18,CN(Cc1ccc(Cl)c(-c2nc(O)nc(-c3ccccc3)n2)c1)C(=O)C1(C(F)(F)F)CCCC1 [Example 1-238],7.4
19,CO[C@](C)(C(=O)NCc1ccc(Cl)c(-c2nc(O)nc(-c3ccc(C(F)(F)F)c(C)c3)n2)c1)C(F)(F)F [Example 1-148],1.7
20,CNC(=O)c1ccc(Cl)c(-c2nc(O)nc(-c3ccc(OCC4CC4)cc3)n2)c1 [Example 1-194],10500

row,SMILES,IC50 [nM]
1,CCCOc1ccc(-c2nc(O)nc(-c3cc(CN4CC(C)(C)C4=O)ccc3Cl)n2)cc1 [Example 1-158],12
2,CCCCc1ccc(Cl)c(-c2nc(O)nc(-c3ccc(OCC(C)(C)C)cc3)n2)c1 [Example 1-205],367
3,O=C(NCc1ccc(Cl)c(-c2nc(O)nc(-c3cccc(OC(F)(F)F)c3)n2)c1)C1(C(F)(F)F)CCCC1 [Example 1-78],2.2
4,CC(C)OC(=O)NCc1ccc(Cl)c(-c2nc(O)nc(-c3ccc(C(F)(F)F)cc3)n2)c1 [Example 1-39],1.9
5,CC1(C(=O)NCc2ccc(Cl)c(-c3nc(O)nc(-c4ccccc4)n3)c2)CCCC1 [Example 1-73],0.6
6,COC(C)(C)C(=O)NCc1ccc(Cl)c(-c2nc(O)nc(-c3cccc(C(C)(C)C)c3)n2)c1 [Example 1-84],0.6
7,CC(C)c1ccc(-c2nc(O)nc(-c3cc(CNC(=O)C(C)(C)C)ccc3Cl)n2)cc1 [Example 1-46],0.7
8,CC1(C)CCCN(Cc2ccc(Cl)c(-c3nc(O)nc(-c4ccccc4)n3)c2)C1=O [Example 1-241],278
9,CC1(C(=O)NCc2ccc(Cl)c(-c3nc(O)nc(-c4ccccc4)n3)c2)CCC1 [Example 1-72],1.3
10,COC(C)(C)C(=O)N(C)Cc1ccc(Cl)c(-c2nc(O)nc(-c3ccccc3)n2)c1 [Example 1-234],1000
11,"CCN(Cc1ccc(Cl)c(-c2nc(O)nc(-c3ccccc3)n2)c1)C(=O)C(C)(C)C(F)(F)F [Example 1-263, N-[4-chloro-3-(4-hydroxy-6-phenyl-1,3,5-triazin-2-yl)benzyl]-N-ethyl-3,3,3-trifluoro-2,2-dimethylpropionamide]",702
12,CN(Cc1ccc(Cl)c(-c2nc(O)nc(-c3ccccc3)n2)c1)C(=O)C(C)(C)c1ccccc1 [Example 1-237],1300
13,CCO[C@](C)(C(=O)N(C)Cc1ccc(Cl)c(-c2nc(O)nc(-c3ccccc3)n2)c1)C(F)(F)F [Example 1-252],511
14,CC(C)COc1ccc(-c2nc(O)nc(-c3cc(CNC(=O)C(C)(C)C(F)(F)F)ccc3Cl)n2)cc1C(F)(F)F [Example 1-120],48
15,CC(C)COc1ccc(-c2nc(O)nc(-c3cc(CNC(=O)C(C)(C)C(F)(F)F)ccc3Cl)n2)cn1 [Example 1-182],1.6
16,COC(C)(C)Cc1ccc(Cl)c(-c2nc(O)nc(-c3ccc(OCC(C)(C)C)cc3)n2)c1 [Example 1-215],452
17,O=C(NCc1ccc(Cl)c(-c2nc(O)nc(-c3ccccc3)n2)c1)C1CCCC1 [Example 1-67],1
18,CC(C)(C)OC(=O)N1CCC2(CC1)CCN(Cc1ccc(Cl)c(-c3nc(O)nc(-c4ccccc4)n3)c1)C2=O [Example 1-265],56
19,CO[C@](C)(C(=O)NCc1ccc(Cl)c(-c2nc(O)nc(-c3ccc(C)c(F)c3)n2)c1)C(F)(F)F [Example 1-105],0.7

# Further lines, results first:
row,IC50 [nM],SMILES
1,23100,Cc1cccc(-c2nc(O)nc(-c3c(C)cccc3C)n2)c1 [Example 2-13]
2,5.6,Cc1ccccc1C#Cc1ccc(-c2nc(O)nc(-c3c(OCc4ccccn4)cccc3C(F)(F)F)n2)cc1 [Example 2-100]
3,9.3,CC(C)(C)COc1ccc(-c2nc(O)nc(-c3c(Cl)cccc3OCc3ccccn3)n2)cc1 [Example 2-62]
4,38,Oc1nc(-c2ccc(OCC3CC3)nc2)nc(-c2c(Cl)cccc2OCc2ccccc2)n1 [Example 2-93]
5,2400,Cc1cccc(C)c1-c1nc(O)nc(-c2ccc(F)cc2)n1 [Example 2-24]
6,13,CCc1ccc(C#Cc2ccc(-c3nc(O)nc(-c4c(OCc5cccc(C)n5)cccc4C(F)(F)F)n3)cc2)cc1 [Example 2-128]
7,27,CC(C)COc1ccc(-c2nc(O)nc(-c3c(Cl)cccc3O[C@@H](C)c3ccccn3)n2)cc1 [Example 2-67]
8,19,Cc1cccc(C)c1-c1nc(O)nc(-c2ccc(Cl)c(OCc3ccccc3)c2)n1 [Example 2-48]
9,239,Cc1cccc(C)c1-c1nc(O)nc(-c2ccc(OCC(C)C)cc2)n1 [Example 2-42]
10,494,Cc1cccc(C)c1-c1nc(O)nc(-c2ccc(OC3CCCCC3)cc2)n1 [Example 2-46]
11,101,Cc1cccc(C)c1-c1nc(O)nc(-c2ccc(OCc3ccccc3)cc2)n1 [Example 2-5]
12,2,Cc1c(CNC(=O)C(C)(C)C(F)(F)F)ccc(Cl)c1-c1nc(O)nc(-c2ccc(CC(C)C)cc2)n1 [Example 3-14]
13,611,CNC(=O)c1cc(-c2nc(O)nc(-c3ccc(OCC4CC4)cc3)n2)c(Cl)cc1C [Example 3-21]
14,14,CCc1ccccc1COc1cccc(Cl)c1-c1nc(O)nc(-c2ccc(C(F)(F)F)cc2)n1 [Example 2-49]
15,5.9,Cc1ccc(C#Cc2ccc(-c3nc(O)nc(-c4c(OCc5ccccn5)cccc4C(F)(F)F)n3)cc2)cc1 [Example 2-102]
16,61,Cc1cccc(C)c1-c1nc(O)nc(-c2ccc(OCC3CCCC3)cc2)n1 [Example 2-50]
17,1.6,Oc1nc(-c2ccc(C#Cc3ccccc3)cc2)nc(-c2c(Cl)cccc2OCc2ccccn2)n1 [Example 2-80]
18,1.7,Oc1nc(-c2ccc(C#CC3CC3)cc2)nc(-c2c(Cl)cccc2OCc2ccccn2)n1 [Example 2-82]
19,28,COc1ccc(F)c(Cl)c1-c1nc(O)nc(-c2ccc(OCc3ccccc3)cc2)n1 [Example 3-12]
20,1100,Cc1cc(Cl)c(-c2nc(O)nc(-c3ccc(OCC4CC4)cc3)n2)cc1C(N)=O [Example 3-20]
21,2.1,CCCc1cccc(-c2nc(O)nc(-c3cc(CNC(=O)C(C)(C)C(F)(F)F)c(C)cc3Cl)n2)c1 [Example 3-16]
22,4.3,COc1cccc(C#Cc2ccc(-c3nc(O)nc(-c4c(OCc5cccc(C)n5)cccc4C(F)(F)F)n3)cc2)c1 [Example 2-125]
23,1.2,Cc1c(CNC(=O)C(C)(C)C(F)(F)F)ccc(Cl)c1-c1nc(O)nc(-c2ccc(OCC(C)C)cc2)n1 [Example 3-18]
24,14700,Cc1cc(C(F)(F)F)ccc1-c1nc(O)nc(-c2c(C)cccc2C)n1 [Example 2-3]
25,21300,Cc1cccc(C)c1-c1nc(O)nc(-c2ccccc2)n1 [Example 2-2]
26,10,Oc1nc(-c2ccc(C#Cc3ccccc3C(F)(F)F)cc2)nc(-c2c(OCc3ccccn3)cccc2C(F)(F)F)n1 [Example 2-103]
27,95,Cc1cccc(C)c1-c1nc(O)nc(-c2ccc(OCc3ccccc3)nc2)n1 [Example 2-59]
28,18,Oc1nc(-c2ccc(OCC3CC3)cc2)nc(-c2c(Cl)cccc2OCc2ccccn2)n1 [Example 2-89]

# Same assay, conditions: at 30 μM test article
row,inhibition at 30 µM [%],SMILES
1,43,Cc1cccc(C)c1-c1nc(O)nc(-c2cccc(O)c2)n1 [Example 2-30]
